Results published in patent US4727080A, “1-substituted derivatives of 6-fluoro-7-(pyrrol-1-yl)-1,4-dihydro-4-oxoquinoline-3-carboxylic acid, their preparation and their application as drugs” (Provesan S.A., priority 1984, dated 1988).
Converted amounts (≈) assume the structure as drawn.

Columns and labels:
[1] = system: Bacillus subtilis ATCC 6633; test: "In vitro" MIC, Bacillus subtilis; format: cell-based; details: ATCC6633; Bacillus subtilis ATCC 6633; dextrose agar, 37° C., 20 hours; read-out: "In vitro" MIC
Description: (§1) Antimicrobial pharmacological activity (G. L. Daquet and Y. A. Chabbect, Techniques en bacteriologie (Techniques in bacteriology), vol. 3, Flammarion Medecine-Sciences, Paris, 1972, and W. B. Hugo and A. D. Rusell, Pharmaceutical Microbiology, Blackwell Scientific Publications, London (1977).
Bacillus subtilis ATCC 6633
(§2) A streak culture of each of the microorganisms is formed in tubes of antibiotics agar no. 1 and incubated for 20 hours at 37° C. A culture loop is then taken and a culture is formed in a tryptone-soya broth and incubated for 20 hours at 37° C. The resulting culture is diluted to 1/4 with Ringer's physiological solution to give a standardized suspension of 10^5 ufc/ml for each organism.
(§3) Starting from a solution of 1000 μg/ml in 0.1N NaOH, each product is diluted successively in dextrose agar (melted beforehand and kept at 50° C.) to give the following concentrations: 64-32-16-8-4-2-1-0.5-0.25-0.125 μg of derivative/ml of medium.
(§4) After this, each concentration of each product is divided up into Petri dishes of 10 cm diameter at a rate of 10 ml of medium per dish and using as many dishes as there are microorganisms to be tested.
(§5) Once the medium has cooled, the dishes are treated with the inoculations at a rate of 0.4 ml of inoculation per dish. They are spread out with a Drigalski loop and the supernatant is collected. The inoculated dishes are incubated at 37° C. for 20 hours.

[2] = system: Micrococcus flavus ATCC 10240; test: "In vitro" MIC, Micrococcus flavus; format: cell-based; details: ATCC10240; Micrococcus flavus ATCC 10240; dextrose agar, 37° C., 20 hours; read-out: "In vitro" MIC
Description: as §1
Micrococcus flavus ATTC 10240
as §2, §3, §4, §5

Sarcina lutea ATCC 9341 = test: "In vitro" MIC, Sarcina lutea; format: cell-based; details: Micrococcus luteus, ATCC9341; Sarcina lutea ATCC 9341; dextrose agar, 37° C., 20 hours; read-out: "In vitro" MIC
Description: as §1, §2, §3, §4, §5

[3] = system: Staphylococcus aureus ATCC 5488/23; test: "In vitro" MIC, Staphylococcus aureus ATCC 5488/23; format: cell-based; details: ATCC5488; Staphylococcus aureus ATCC 5488/23; dextrose agar, 37° C., 20 hours; read-out: "In vitro" MIC
Description: as §1
Staphylococcus aureus ATCC 5488/23
as §2, §3, §4, §5

[4] = system: Staphylococcus aureus ATCC 25178; test: "In vitro" MIC, Staphylococcus aureus ATCC 25178; format: cell-based; details: ATCC25178; Staphylococcus aureus ATCC 25178; dextrose agar, 37° C., 20 hours; read-out: "In vitro" MIC
Description: as §1
Staphylococcus aureus ATCC 25178
as §2, §3, §4, §5

[5] = system: Streptococcus faecalis ATCC 10541; test: "In vitro" MIC, Streptococcus faecalis; format: cell-based; details: Enterococcus faecalis, ATCC10541; Streptococcus faecalis ATCC 10541; dextrose agar, 37° C., 20 hours; read-out: "In vitro" MIC
Description: as §1
Streptococcus faecalis ATCC 10541
as §2, §3, §4, §5

[6] = system: Enterobacter aerogenes ATCC 15038; test: "In vitro" MIC, Enterobacter aerogenes; format: cell-based; details: Klebsiella aerogenes, ATCC15038; Enterobacter aerogenes ATCC 15038; dextrose agar, 37° C., 20 hours; read-out: "In vitro" MIC
Description: as §1
Enterobacter aerogenes ATCC 15038
as §2, §3, §4, §5

[7] = system: Enterobacter cloacae CHSP-20; test: "In vitro" MIC, Enterobacter cloacae; format: cell-based; details: CHSP20; Enterobacter cloacae CHSP-20; dextrose agar, 37° C., 20 hours; read-out: "In vitro" MIC
Description: as §1
Enterobacter cloacae CHSP-20
as §2, §3, §4, §5

[8] = system: Escherichia coli ATCC 10536; test: "In vitro" MIC, Escherichia coli ATCC 10536; format: cell-based; details: ATCC10536; Escherichia coli ATCC 10536; dextrose agar, 37° C., 20 hours; read-out: "In vitro" MIC
Description: as §1
Escherichia coli ATCC 10536
as §2, §3, §4, §5

Escherichia coli R-1513 = test: "In vitro" MIC, Escherichia coli R-1513; format: cell-based; details: R1513; Escherichia coli R-1513; dextrose agar, 37° C., 20 hours; read-out: "In vitro" MIC
Description: as §1, §2, §3, §4, §5

[9] = system: Klebsiella pneumoniae ATCC 10031; test: "In vitro" MIC, Klebsiella pneumoniae; format: cell-based; details: ATCC10031; Klebsiella pneumoniae ATCC 10031; dextrose agar, 37° C., 20 hours; read-out: "In vitro" MIC
Description: as §1
Klebsiella pneumoniae ATCC 10031
as §2, §3, §4, §5

[10] = system: Citrobacter freundii ATCC 11606; test: "In vitro" MIC, Citrobacter freundii; format: cell-based; details: ATCC11606; Citrobacter freundii ATCC 11606; dextrose agar, 37° C., 20 hours; read-out: "In vitro" MIC
Description: as §1
Citrobacter freundii ATCC 11606
as §2, §3, §4, §5

[11] = system: Proteus mirabilis ATCC 4675; test: "In vitro" MIC, Proteus mirabilis; format: cell-based; details: ATCC4675; Proteus mirabilis ATCC 4675; dextrose agar, 37° C., 20 hours; read-out: "In vitro" MIC
Description: as §1
Proteus mirabilis ATCC 4675
as §2, §3, §4, §5

Proteus morganii CHSP-16 = test: "In vitro" MIC, Proteus morganii; format: cell-based; details: Morganella morganii, CHSP16; Proteus morganii CHSP-16; dextrose agar, 37° C., 20 hours; read-out: "In vitro" MIC
Description: as §1, §2, §3, §4, §5

[12] = system: Pseudomonas aeruginosa 25115; test: "In vitro" MIC, Pseudomonas aeruginosa 25115; format: cell-based; details: Pseudomonas aeruginosa 25115; dextrose agar, 37° C., 20 hours; read-out: "In vitro" MIC
Description: as §1
Pseudomonas aeruginosa 25115
as §2, §3, §4, §5

[13] = system: Pseudomonas aeruginosa ADSA 47; test: "In vitro" MIC, Pseudomonas aeruginosa ADSA 47; format: cell-based; details: ADSA47; Pseudomonas aeruginosa ADSA 47; dextrose agar, 37° C., 20 hours; read-out: "In vitro" MIC
Description: as §1
Pseudomonas aeruginosa ADSA 47
as §2, §3, §4, §5

[14] = system: Salmonella typhimurium AMES 98; test: "In vitro" MIC, Salmonella typhimurium AMES 98; format: cell-based; details: Salmonella enterica; Salmonella typhimurium AMES 98; dextrose agar, 37° C., 20 hours; read-out: "In vitro" MIC
Description: as §1
Salmonella typhimurium AMES 98
as §2, §3, §4, §5

[15] = system: Salmonella typhimurium AMES 100; test: "In vitro" MIC, Salmonella typhimurium AMES 100; format: cell-based; details: Salmonella enterica; Salmonella typhimurium AMES 100; dextrose agar, 37° C., 20 hours; read-out: "In vitro" MIC
Description: as §1
Salmonella typhimurium AMES 100
as §2, §3, §4, §5

[16] = system: Serratia marcescens ATTC 13880; test: "In vitro" MIC, Serratia marcescens; format: cell-based; details: ATTC13880; Serratia marcescens ATTC 13880; dextrose agar, 37° C., 20 hours; read-out: "In vitro" MIC
Description: as §1
Serratia marcescens ATTC 13880
as §2, §3, §4, §5

Shigella flexnerii = test: "In vitro" MIC, Shigella flexnerii; format: cell-based; details: 20 h, read-out: "In vitro" MIC
Description: as §1, §2, §3, §4, §5

Acute toxicity to mice = details: mouse, in vivo, ip, suspension in 5% gum arabic, mortality over 7 days
Description: The experimental animals used to determine this toxicity were albino mice of the C.F.L.P. strain and of both sexes, weighing between 19 and 25 grams. After an 18-hour fasting period with water "ad libitum", the derivatives forming the subject of the present invention are administered intraperitoneally as a suspension in 5% gum arabic. The volume of suspension administered was 0.4 ml/20 grams (20 ml/kg) in all cases, the concentration of the suspension being changed according to the dose administered.
One hour after administration of the derivatives, the animals are given a standard Panlab rat-mouse food. The mortality was observed over a period of 7 days. Differences in mortality between the sexes were not observed with any of the products.

Gram-positive cocci = test: "In vitro" antimicrobial activity compared with nalidixic acid, Gram-positive cocci; format: cell-based
Description: as §1, §2, §3, §4, §5

[17] = system: Gram-negative microorganisms; test: "In vitro" antimicrobial activity compared with nalidixic acid, Gram-negative microorganisms; format: cell-based
Description: as §1, §2, §3, §4, §5

all microorganisms = test: "In vitro" antimicrobial activity compared with nalidixic acid, all microorganisms; format: cell-based; details: against all microorganisms
Description: as §1, §2, §3, §4, §5

CCCn1cc(C(=O)O)c(=O)c2cc(F)c(-n3cccc3)cc21 [Example 5, 6-fluoro-7-(pyrrol-1-yl)-1-propyl-4-oxo-1,4-dihydroquinoline-3-carboxylic acid]
MIC [1]: 0.125 µg/mL (≈ 0.398 µM) | MIC [2]: 8 µg/mL (≈ 25.5 µM) | MIC (Sarcina lutea ATCC 9341): 8 µg/mL (≈ 25.5 µM) | MIC [3]: 0.5 µg/mL (≈ 1.59 µM) | MIC [4]: 0.5 µg/mL (≈ 1.59 µM) | MIC [5]: 8 µg/mL (≈ 25.5 µM) | MIC [6]: 8 µg/mL (≈ 25.5 µM) | MIC [7]: 4 µg/mL (≈ 12.7 µM) | MIC [8]: 0.5 µg/mL (≈ 1.59 µM) | MIC (Escherichia coli R-1513): 8 µg/mL (≈ 25.5 µM) | MIC [9]: 0.5 µg/mL (≈ 1.59 µM) | MIC [10]: 8 µg/mL (≈ 25.5 µM) | MIC [11]: 16 µg/mL (≈ 50.9 µM) | MIC (Proteus morganii CHSP-16): 8 µg/mL (≈ 25.5 µM) | MIC [12]: 32 µg/mL (≈ 102 µM) | MIC [13]: 32 µg/mL (≈ 102 µM) | MIC [14]: 1 µg/mL (≈ 3.18 µM) | MIC [15]: 1 µg/mL (≈ 3.18 µM) | MIC [16]: 1 µg/mL (≈ 3.18 µM) | MIC (Shigella flexnerii): 4 µg/mL (≈ 12.7 µM) | LD50 at 168 h (Acute toxicity to mice): > 1600 mg/kg | "in vitro" activity compared with nalidixic acid (Gram-positive cocci): greater activity towards Gram-positive cocci | activity compared with nalidixic acid [17]: activity of the same order as nalidixic acid

CCNn1cc(C(=O)O)c(=O)c2cc(F)c(-n3cccc3)cc21 [Example 8, 6-fluoro-7-(pyrrol-1-yl)-1-ethylamino-4-oxo-1,4-dihydroquinoline-3-carboxylic acid]
MIC [1]: ≤ 0.062 µg/mL | MIC [2]: 2 µg/mL (≈ 6.34 µM) | MIC (Sarcina lutea ATCC 9341): 4 µg/mL (≈ 12.7 µM) | MIC [3]: 0.25 µg/mL (≈ 0.793 µM) | MIC [4]: 0.25 µg/mL (≈ 0.793 µM) | MIC [5]: 4 µg/mL (≈ 12.7 µM) | MIC [6]: 2 µg/mL (≈ 6.34 µM) | MIC [7]: 1 µg/mL (≈ 3.17 µM) | MIC [8]: 0.062 µg/mL (≈ 0.197 µM) | MIC (Escherichia coli R-1513): 4 µg/mL (≈ 12.7 µM) | MIC [9]: 0.25 µg/mL (≈ 0.793 µM) | MIC [10]: 4 µg/mL (≈ 12.7 µM) | MIC [11]: 8 µg/mL (≈ 25.4 µM) | MIC (Proteus morganii CHSP-16): 4 µg/mL (≈ 12.7 µM) | MIC [12]: 16 µg/mL (≈ 50.7 µM) | MIC [13]: ≥ 32 µg/mL | MIC [14]: 0.062 µg/mL (≈ 0.197 µM) | MIC [15]: 1 µg/mL (≈ 3.17 µM) | MIC [16]: 2 µg/mL (≈ 6.34 µM) | MIC (Shigella flexnerii): 1 µg/mL (≈ 3.17 µM) | LD50 at 168 h (Acute toxicity to mice): > 1600 mg/kg | "in vitro" activity compared with nalidixic acid (Gram-positive cocci): greater activity towards Gram-positive cocci | activity compared with nalidixic acid [17]: activity of the same order as nalidixic acid

O=C(O)c1cn(C2CC2)c2cc(-n3cccc3)c(F)cc2c1=O [Example 9, 6-fluoro-7-(pyrrol-1-yl)-1-cyclopropyl-1,4-dihydro-4-oxoquinoline-3-carboxylic acid]
MIC [1]: 0.25 µg/mL (≈ 0.801 µM) | MIC [2]: 0.5 µg/mL (≈ 1.6 µM) | MIC (Sarcina lutea ATCC 9341): 0.5 µg/mL (≈ 1.6 µM) | MIC [3]: < 0.06 µg/mL | MIC [4]: < 0.06 µg/mL | MIC [5]: 0.25 µg/mL (≈ 0.801 µM) | MIC [6]: 0.12 µg/mL (≈ 0.384 µM) | MIC [7]: 0.12 µg/mL (≈ 0.384 µM) | MIC [8]: < 0.06 µg/mL | MIC (Escherichia coli R-1513): 0.12 µg/mL (≈ 0.384 µM) | MIC [9]: < 0.06 µg/mL | MIC [10]: 0.25 µg/mL (≈ 0.801 µM) | MIC [11]: 0.5 µg/mL (≈ 1.6 µM) | MIC (Proteus morganii CHSP-16): 0.5 µg/mL (≈ 1.6 µM) | MIC [12]: 1 µg/mL (≈ 3.2 µM) | MIC [13]: 2 µg/mL (≈ 6.4 µM) | MIC [14]: 1 µg/mL (≈ 3.2 µM) | MIC [15]: < 0.06 µg/mL | MIC [16]: 0.5 µg/mL (≈ 1.6 µM) | MIC (Shigella flexnerii): 0.2 µg/mL (≈ 0.64 µM) | LD50 at 168 h (Acute toxicity to mice): > 1600 mg/kg | activity compared with nalidixic acid (all microorganisms): greater than the activity of nalidixic acid
